Results from US8835644B2, “Broad spectrum benzothiophene-nitrothiazolide and other antimicrobials” (University of Virginia Patent Foundation, priority 2009, dated 2014).
≈ marks a conversion by molar mass, not a printed value. Like-named read-outs stand apart in the source and are kept apart here.

Legend:
H. pylori = assay: MIC testing by broth dilution, H. pylori; type: cell-based, Helicobacter pylori
Experimental: (§1) A standard broth dilution protocol was used in 96 well microplates containing a standard dilution of the microorganism to be tested in 100 microliters of the appropriate medium. Appropriate medium: E. coli, LB medium; Staphylococcus strains, Trypticase Soy; and for H. pylori and C. jejuni, Brain Heart Infusion. The compounds to be tested were set at 32 μg/ml in 200 microliters in well one and then serially diluted to provide a range from 32 to 0.06. The wells were scored visually at 24 h. The well where there was no growth was recorded as the MIC. Clostridium difficile was tested by agar diffusion and disk diffusion (Kirby Bower) methods under anaerobic conditions on Wilkins Chalgrin agar. In these assays, zone of inhibited growth was measured and compared by relative ratio to the zone recorded for NTZ.
(§2) Representative compounds of the invention were tested in a series of assays against a series of organisms as described above. […] The organisms tested include, C. difficile, H. pylori, C. jejuni, MRSA, S. epidermidis, and E. coli. S. epidermidis and E. coli were tested in the plank and biofilm assay. A disk diffusion assay was also used for C. difficile. Direct PFOR enzyme assays were also performed. All analogues and derivatives were not tested on every organism in every type of assay (the “-” in each table means that it was not tested).

C. jejuni = assay: MIC testing by broth dilution, C. jejuni; type: cell-based, Campylobacter jejuni
Experimental: as §1, §2

MRSA = assay: MIC testing by broth dilution, MRSA; type: cell-based, Staphylococcus aureus
Experimental: as §1, §2

S. epidermidis = assay: MIC testing by broth dilution, S. epidermidis plank; type: cell-based, Staphylococcus epidermidis
Experimental: as §1, §2

S. epidermidis biofilm = S. epidermidis biofilm assay (activity tables); type: cell-based, Staphylococcus epidermidis
Experimental: Staphylococcal strains were cultured overnight in TSB at 37° C. with shaking, diluted in fresh medium to an OD600 of 0.01 and 200 W was dispensed into sterile flat bottom polystyrene 96 well microtiter plates (Costar 3596, Corning Inc.). […] Each compound and dilution was tested in triplicate. The plates were incubated overnight at 37° C. in a humidified incubator, without shaking and both growth and biofilm accumulation were determined at 16 h.
Following recording of turbidities, the culture medium was aspirated and the wells were washed three times with distilled water, blotted on paper towels, and fixed with 75% ethanol for 10 minutes.
To visualize biofilm material, 0.5% crystal violet was added to each well and after 5 minutes was removed and the wells washed three times with distilled water. Plates were read using a microplate reader at a wavelength of 570 nm. The dye was then extracted by adding 200 W of 95% ethanol, and the absorbance was read again at 570 nm. All assays were performed in triplicate and the mean and standard deviation determined. […]
as §2

E. coli = assay: MIC testing by broth dilution, E. coli plank; type: cell-based, Escherichia coli
Experimental: as §1, §2

E. coli biofilm = E. coli biofilm assay (activity tables); type: cell-based, Escherichia coli; conditions: biofilm; read-out: MIC (μM) E. coli Biofilm
Experimental: A quantitative biofilm assay was used to determine the effect of NTZ on biofilm formation (41). Strain 042 was grown overnight at 37° C. with shaking and inoculated 1:100 in 200 μl culture medium in Costar 96-well, flat-bottom, polystyrene microtiter plates containing appropriate concentrations of NTZ. Plates were incubated statically at 37° C. in a humidified incubator. At 24 h, bacterial growth was measured by either transferring […] aliquots to another microtiter plate to determine turbidity or by diluting 100 μl aliquots 1:100 in 9.9 ml PBS for quantitative plate counts on LB medium. Bacterial counts in triplicate are reported as cfu/ml. Biofilm was visualized following staining with 0.5% crystal violet (41) and the absorbance was read at 570 nm using a microplate reader (Molecular Dynamics). All experiments were in triplicate and reported as mean and standard deviation.
as §1, §2

C. difficile = assay: Disk diffusion (Kirby Bower), C. difficile; type: cell-based, Clostridium difficile; conditions: for Disk Diffusion (%) C. difficile: zone of inhibited growth as relative ratio to the zone for NTZ
Experimental: as §1, §2

[1] = broth dilution, Brain Heart Infusion, 24 h, read-out: MIC (μM) H. pylori
[2] = broth dilution, Brain Heart Infusion, 24 h, read-out: MIC (μM) C. jejuni
[3] = broth dilution, Trypticase Soy, 24 h, read-out: MIC (μM) MRSA
[4] = broth dilution, Trypticase Soy, 24 h, read-out: MIC (μM) S. epidermidis Plank
[5] = broth dilution, LB medium, 24 h, read-out: MIC (μM) E. coli Plank
[6] = Helicobacter pylori, broth dilution, Brain Heart Infusion, 24 h, read-out: MIC (μM) H. pylori
[7] = Campylobacter jejuni, broth dilution, Brain Heart Infusion, 24 h, read-out: MIC (μM) C. jejuni
[8] = Staphylococcus aureus, MRSA, broth dilution, Trypticase Soy, 24 h, read-out: MIC (μM) MRSA
[9] = Staphylococcus epidermidis, broth dilution, Trypticase Soy, 24 h, read-out: MIC (μM) S. epidermidis Plank
[10] = Escherichia coli, broth dilution, LB medium, 24 h, read-out: MIC (μM) E. coli Plank

Compound | MIC (H. pylori; [1]) [µM] | MIC (C. jejuni; [2]) [µM] | MIC (MRSA; [3]) [µM] | MIC (S. epidermidis; [4]) [µM] | MIC (E. coli; [5]) [µM] | Disk Diffusion (%) C. difficile (C. difficile) [%] | other results
CC1=C(C(=O)Nc2ncc([N+](=O)[O-])s2)Cc2ccccc21 [VPC16a1018] | 0.7 (≈ 0.211 µg/mL) | 10.7 (≈ 3.22 µg/mL) | 106.2 (≈ 32 µg/mL) | 106.2 (≈ 32 µg/mL) | 106.2 (≈ 32 µg/mL) |  | MIC (μM) S. epidermidis Biofilm (S. epidermidis biofilm): 26.5 µM (≈ 7.99 µg/mL); MIC (E. coli biofilm): 53.1 µM (≈ 16 µg/mL)
O=C(CCCc1ccccc1)Nc1ncc([N+](=O)[O-])s1 [VPC16a1020] | 13.8 (≈ 4.02 µg/mL) | 2.6 (≈ 0.757 µg/mL) | 109.8 (≈ 32 µg/mL) | 109.8 (≈ 32 µg/mL) | 109.8 (≈ 32 µg/mL) | 33 ± 3 | MIC (E. coli biofilm): 54.9 µM (≈ 16 µg/mL)
O=C(CCc1ccccc1)Nc1ncc([N+](=O)[O-])s1 [VPC16b1030] | 0.3 (≈ 0.0832 µg/mL) | 1.30 (≈ 0.36 µg/mL) | 115.4 (≈ 32 µg/mL) | 14.4 (≈ 3.99 µg/mL) | 115.4 (≈ 32 µg/mL) | 54.5 ± 0.5 | MIC (E. coli biofilm): 50.5 µM (≈ 14 µg/mL)
O=C(Nc1ccccc1)c1ncc([N+](=O)[O-])s1 [VPC161232] |  |  |  |  |  | 0 | MIC (H. pylori; [6]): 6 µM (≈ 1.5 µg/mL); MIC (C. jejuni; [7]): 8 µM (≈ 1.99 µg/mL); MIC (MRSA; [8]): 32.1 µM (≈ 8 µg/mL); MIC (S. epidermidis; [9]): 16 µM (≈ 3.99 µg/mL); MIC (E. coli; [10]): 128 µM (≈ 32 µg/mL)
O=C(O)CCCC(=O)Nc1ncc([N+](=O)[O-])s1 [VPC161273] | 5.8 (≈ 1.5 µg/mL) | 123.4 (≈ 32 µg/mL) | 123.4 (≈ 32 µg/mL) |  | 123.4 (≈ 32 µg/mL) |  | MIC (μM) S. epidermidis Biofilm (S. epidermidis biofilm): 123.4 µM (≈ 32 µg/mL); MIC (E. coli biofilm): 61.7 µM (≈ 16 µg/mL)
CC(C)(C)OC(=O)COc1ccccc1C(=O)Nc1ncc([N+](=O)[O-])s1 [VPC162035, tert-butyl 2-(2-(5-nitrothiazol-2-ylcarbamoyl)phenoxy)acetate] |  |  |  |  |  | 0 | MIC (H. pylori; [6]): 1 µM (≈ 0.379 µg/mL); MIC (C. jejuni; [7]): 84.4 µM (≈ 32 µg/mL); MIC (MRSA; [8]): 84.3 µM (≈ 32 µg/mL); MIC (S. epidermidis; [9]): 84.3 µM (≈ 32 µg/mL); MIC (E. coli; [10]): 84.3 µM (≈ 32 µg/mL)
O=C(Nc1ncc([N+](=O)[O-])s1)c1cc2ccc(F)cc2s1 [VPC162037] |  |  |  |  |  |  | MIC (H. pylori; Thiophene analogues table, read-out: MIC H. pylori): 3.1 µM (≈ 1 µg/mL); MIC (C. jejuni; Thiophene analogues table, read-out: MIC C. jejuni): 6.2 µM (≈ 2 µg/mL); MIC (MRSA; Thiophene analogues table, read-out: MIC MRSA): 61.9 µM (≈ 20 µg/mL); MIC (S. epidermidis; planktonic, Thiophene analogues table, read-out: MIC S. epidermidis Plank): 49.5 µM (≈ 16 µg/mL); MIC (E. coli; planktonic, Thiophene analogues table, read-out: MIC E. coli Plank): 99.0 µM (≈ 32 µg/mL); Disk Diff (%) C. difficile (C. difficile; Nitazoxanide = 100, Thiophene analogues table): 70%
CC(C)(C)OC(=O)Nc1ccccc1C(=O)Nc1ncc([N+](=O)[O-])s1 [VPC162047, tert-Butyl 2-(5-nitrothiazol-2-ylcarbamoyl)phenylcarbamate] |  |  |  |  |  | 83 | MIC (H. pylori; Helicobacter pylori, 24 h, read-out: MIC (μM) H. pylori): 0.3 µM (≈ 0.109 µg/mL); MIC (C. jejuni; Campylobacter jejuni, 24 h, read-out: MIC (μM) C. jejuni): 27.4 µM (≈ 9.98 µg/mL); MIC (MRSA; Staphylococcus aureus, MRSA, 24 h, read-out: MIC (μM) MRSA): 5.5 µM (≈ 2 µg/mL); MIC (S. epidermidis; Staphylococcus epidermidis, 24 h, read-out: MIC (μM) S. epidermidis Plank): 5.5 µM (≈ 2 µg/mL); MIC (E. coli; Escherichia coli, 24 h, read-out: MIC (μM) E. coli Plank): 87.8 µM (≈ 32 µg/mL)
Nc1ccccc1C(=O)Nc1ncc([N+](=O)[O-])s1 [VPC162055] | 2.4 (≈ 0.634 µg/mL) | 11.4 (≈ 3.01 µg/mL) | 121.1 (≈ 32 µg/mL) | 90.8 (≈ 24 µg/mL) | 45.4 (≈ 12 µg/mL) | 83 | 
Cl.NCCCCOc1ccccc1C(=O)Nc1ncc([N+](=O)[O-])s1 [VPC162096HCl] | 2.0 | 5.4 | 85.8 | 42.9 | 85.8 | 111 | 
NCCCCOc1ccccc1C(=O)Nc1ncc([N+](=O)[O-])s1.O=C(O)C(F)(F)F [VPC162096TFA] | 1.7 | 6.7 | 71.0 | 35.5 | 71.0 | 111 | 
Cl.NCCCOc1ccccc1C(=O)Nc1ncc([N+](=O)[O-])s1 [VPC162102HCl] | 1.0 | 8.4 | 89.2 | 44.6 | 89.2 | 74 | 
NCCCOc1ccccc1C(=O)Nc1ncc([N+](=O)[O-])s1.O=C(O)C(F)(F)F [VPC162102TFA] | 0.9 | 13.8 | 73.3 | 73.3 | 73.3 | 79 | 

More lines, main results first:

MIC (H. pylori; [1]) [µM] | MIC (C. jejuni; [2]) [µM] | MIC (MRSA; [3]) [µM] | MIC (S. epidermidis; [4]) [µM] | MIC (E. coli; [5]) [µM] | Compound | Disk Diffusion (%) C. difficile (C. difficile) [%] | other results
1.1 (≈ 0.385 µg/mL) | 34.3 (≈ 12 µg/mL) | 91.3 (≈ 32 µg/mL) | 22.8 (≈ 7.99 µg/mL) | 91.3 (≈ 32 µg/mL) | CC(=O)NCCOc1ccccc1C(=O)Nc1ncc([N+](=O)[O-])s1 [VPC162044] | 77 | 
0.6 (≈ 0.232 µg/mL) | 51.8 (≈ 20 µg/mL) | 82.8 (≈ 32 µg/mL) | 62.1 (≈ 24 µg/mL) | 82.8 (≈ 32 µg/mL) | CS(=O)(=O)NCCOc1ccccc1C(=O)Nc1ncc([N+](=O)[O-])s1 [VPC162045] | 51 | 
0.4 (≈ 0.171 µg/mL) | 74.9 (≈ 32 µg/mL) | 74.9 (≈ 32 µg/mL) | 74.9 (≈ 32 µg/mL) | 74.9 (≈ 32 µg/mL) | O=C(NCCOc1ccccc1C(=O)Nc1ncc([N+](=O)[O-])s1)Nc1ccccc1 [VPC162048] | 31 | 
0.7 (≈ 0.364 µg/mL) | 61.6 (≈ 32 µg/mL) | 61.6 (≈ 32 µg/mL) | 61.6 (≈ 32 µg/mL) | 61.6 (≈ 32 µg/mL) | CC(C)(C)OC(=O)N1CCC(C(=O)NCCOc2ccccc2C(=O)Nc2ncc([N+](=O)[O-])s2)CC1 [VPC162059] | 38 | 
